Measurements from patent publication US11839613B2, “Pyrimidine derivatives as PGE2 receptor modulators” (IDORSIA PHARMACEUTICALS LTD, priority 2017, dated 2023).

Legend:
PTGER2 (EP2) = PTGER2 (EP2) (Homo sapiens (Human), UniProt P43116); assay: hEP2 b-arrestin assay (PathHunter HEK 293 PTGER2 b-arrestin cells); assay type: cell-based; details: antagonistic activity, beta-arrestin assay; read-out: hEP2 b-arr IC50
Description: Plate is pre-incubated 15 minutes at 37° C. Then five microliters of PGE2 (final conc. 5 μM) are transferred into the assay plate. Plate is incubated 120 minutes at 37° C.
(each concentration is measured in duplicate)

EP2 = EP2 (Homo sapiens (Human), UniProt P43116); assay: hEP2 cAMP assay (SF295 glioblastoma cells, HTRF cAMP); assay type: cell-based; details: antagonistic activity
Outline: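 PGE2-driven cAMP accumulation was measured by HTRF in SF295 cells, which express endogenous EP2 only. Cells in assay buffer with 2 mM IBMX were pre-incubated 45 min at RT, then incubated 30 min at RT. Detection used competition between cellular cAMP and d2-cAMP for a cryptate anti-cAMP antibody.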

EP4 = EP4 (Homo sapiens (Human), UniProt P35408); assay: hEP4 cAMP assay (BT549 breast cancer cells, HTRF cAMP); assay type: cell-based; details: antagonistic activity, PGE2 6 nM
Outline: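 BT549 breast cancer cells (endogenous EP4) in HBSS/20 mM HEPES/0.2% BSA/2 mM IBMX preincubated 45 min at RT with compound, then stimulated 30 min at RT with 6 nM PGE2 (final). cAMP read by competitive HTRF immunoassay, signal inversely proportional to cAMP.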

PTGER4 (EP4) = PTGER4 (EP4) (Homo sapiens (Human), UniProt P35408); assay: cell-based
PTGER4 (EP4), sequence (P35408 whole entry): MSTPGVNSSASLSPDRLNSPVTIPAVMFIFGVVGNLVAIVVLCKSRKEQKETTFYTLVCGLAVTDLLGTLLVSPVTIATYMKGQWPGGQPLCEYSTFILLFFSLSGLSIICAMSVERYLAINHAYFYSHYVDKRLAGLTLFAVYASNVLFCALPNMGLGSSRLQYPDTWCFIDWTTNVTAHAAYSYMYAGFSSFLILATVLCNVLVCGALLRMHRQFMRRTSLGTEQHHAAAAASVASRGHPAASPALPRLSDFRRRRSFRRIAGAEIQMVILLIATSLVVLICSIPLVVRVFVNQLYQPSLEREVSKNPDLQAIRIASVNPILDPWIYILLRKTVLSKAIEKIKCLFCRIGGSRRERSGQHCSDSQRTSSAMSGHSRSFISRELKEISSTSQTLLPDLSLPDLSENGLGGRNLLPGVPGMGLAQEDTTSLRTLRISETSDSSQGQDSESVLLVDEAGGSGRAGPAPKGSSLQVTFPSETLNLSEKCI

PTGER2 (EP2), sequence (P43116 whole entry): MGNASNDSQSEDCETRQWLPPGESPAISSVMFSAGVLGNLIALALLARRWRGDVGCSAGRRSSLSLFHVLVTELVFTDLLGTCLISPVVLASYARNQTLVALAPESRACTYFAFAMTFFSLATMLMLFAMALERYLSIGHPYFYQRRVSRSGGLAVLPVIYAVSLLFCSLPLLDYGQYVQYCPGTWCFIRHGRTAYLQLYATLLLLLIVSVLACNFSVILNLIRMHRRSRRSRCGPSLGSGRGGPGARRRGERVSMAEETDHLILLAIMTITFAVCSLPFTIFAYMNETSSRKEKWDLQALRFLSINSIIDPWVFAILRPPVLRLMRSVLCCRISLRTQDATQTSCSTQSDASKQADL
EP2, sequence (P43116 whole entry): as above
EP4, sequence (P35408 whole entry): as the sequence (P35408 whole entry) above

| IC50 (PTGER2 (EP2)) [nM] | IC50 (EP2) [nM] | IC50 (EP4) [nM] | IC50 (PTGER4 (EP4)) [nM] | SMILES |
| --- | --- | --- | --- | --- |
| 115 | 67 | 178 | 223 | CCCOc1cc(-c2cc(NCCc3ccc4ccccc4c3C)ncn2)ccc1C(=O)O [Ex 183, 4-{6-[2-(1-Methyl-naphthalen-2-yl)-ethylamino]-pyrimidin-4-yl}-2-propoxy-benzoic acid] |
| 171 | 164 | 200 | 378 | CCOc1cc(-c2cc(NCCc3cc4c(cc3C)OCCO4)ncn2)ccc1OCC(=O)O [Ex 184, (2-Ethoxy-4-{6-[2-(7-methyl-2,3-dihydro-benzo[1,4]dioxin-6-yl)-ethylamino]-pyrimidin-4-yl}-phenoxy)-acetic acid] |
| 158 | 530 | 208 | 108 | CCOc1cc(-c2cc(NCCc3ccc4sccc4c3)ncn2)ccc1CC(=O)O [Ex 189] |
| 76 | 69 | 210 | 153 | CCOc1cc2c(cc1CCNc1cc(-c3ccc(CC(=O)O)c(OCC)c3)ncn1)OCCO2 [Ex 192, (2-Ethoxy-4-{6-[2-(7-ethoxy-2,3-dihydro-benzo[1,4]dioxin-6-yl)-ethylamino]-pyrimidin-4-yl}-phenyl)-acetic acid] |
| 10 | 12 | 211 | 349 | COc1cc2occc2cc1CCNc1cc(-c2ccc(C(=O)O)c(SC)c2)ncn1 [Ex 193, 4-{6-[2-(6-Methoxy-benzofuran-5-yl)-ethylamino]-pyrimidin-4-yl}-2-methylsulfanyl-benzoic acid] |
| 177 | 62 | 138 | 2160 | COc1cc2c(cc1CCNc1cc(-c3ccc4c(C(=O)O)coc4c3)ncn1)OCCO2 [Ex 199, 6-{6-[2-(7-Methoxy-2,3-dihydro-benzo[1,4]dioxin-6-yl)-ethylamino]-pyrimidin-4-yl}-benzofuran-3-carboxylic acid] |
| 57 | 108 | 227 | 510 | O=C(O)c1ccc(-c2cc(NCCc3cc4ccoc4cc3F)ncn2)cc1OC1CCC1 [Ex 200] |
| 83 | 133 | 229 | 111 | CCOc1cc(-c2cc(NCCc3cc4c(cc3OC)OCCO4)ncn2)ccc1OC(C)C(=O)O (stereo not shown) [Ex 201] |
| 118 | 190 | 244 | 47 | CCOc1cc(-c2cc(NCCc3ccc4ccccc4c3C)ncn2)ccc1NCC(=O)O [Ex 205] |
| 1590 | 650 | 259 | 379 | CCOc1cc(-c2cc(NCCc3c(F)c(F)c4cc(C)oc4c3OC)ncn2)ccc1C(=O)O [Ex 215] |
| 160 | 405 | 278 | 651 | CCOc1cc(-c2cc(NCCc3cc4sccc4cc3OC)ncn2)ccc1C(=O)O [Ex 218] |
| 132 | 50 | 366 | 270 | CSc1cc(-c2cc(NCCc3ccc4occc4c3)ncn2)ccc1C(=O)O [Ex 248, 4-[6-(2-Benzofuran-5-yl-ethylamino)-pyrimidin-4-yl]-2-methylsulfanyl-benzoic acid] |
| 112 | 77 | 287 | 609 | CSc1cc(-c2cc(NCCc3ccc4ccoc4c3)ncn2)ccc1C(=O)O [Ex 250, 4-[6-(2-Benzofuran-6-yl-ethylamino)-pyrimidin-4-yl]-2-methylsulfanyl-benzoic acid] |
| 45 | 70 | 379 | 864 | CCOc1cc(-c2cc(NCCc3cc4ccsc4cc3C)ncn2)ccc1C(=O)O [Ex 254, 2-Ethoxy-4-{6-[2-(6-methyl-benzo[b]thiophen-5-yl)-ethylamino]-pyrimidin-4-yl}-benzoic acid] |
| 53 | 20 | 406 | 396 | CCOc1cc2c(cc1CCNc1cc(-c3ccc(C(=O)O)c(OCC)c3)ncn1)OCCO2 [Ex 261, 2-Ethoxy-4-{6-[2-(7-ethoxy-2,3-dihydro-benzo[1,4]dioxin-6-yl)-ethylamino]-pyrimidin-4-yl}-benzoic acid] |
| 79 | 47 | 474 | 1820 | COc1cc2sccc2cc1CCNc1cc(-c2ccc(C(=O)O)cc2)ncn1 [Ex 276, 4-{6-[2-(6-Methoxy-benzo[b]thiophen-5-yl)-ethylamino]-pyrimidin-4-yl}-benzoic acid] |
| 51 | 14 | 324 | 437 | COc1cc2c(cc1CCNc1cc(-c3ccc(C(=O)O)c(SC)c3)ncn1)OCO2 [Ex 277, 4-{6-[2-(6-Methoxy-benzo[1,3]dioxol-5-yl)-ethylamino]-pyrimidin-4-yl}-2-methylsulfanyl-benzoic acid] |
| 163 | 194 | 527 | 438 | CCOc1cc(-c2cc(NCCc3cc4ccsc4cc3C)ncn2)ccc1CC(=O)O [Ex 290] |
| 307 | 250 | 444 | 367 | CCOc1cc(-c2cc(NCCc3cc4c(cc3OC)OCO4)ncn2)ccc1CC(=O)O [Ex 299] |
| 438 | 114 | 835 | 1900 | COc1cc2c(cc1CCNc1cc(-c3ccc4c(C(=O)O)c[nH]c4c3)ncn1)OCCO2 [Ex 323] |
| 287 | 108 | 938 | 919 | CSc1cc(-c2cc(NCCc3ccc4cc[nH]c4c3)ncn2)ccc1C(=O)O [Ex 328, 4-{6-[2-(1H-Indol-6-yl)-ethylamino]-pyrimidin-4-yl}-2-methylsulfanyl-benzoic acid] |
| 664 | 1310 | 1430 | 1320 | C=C(C(=O)O)c1ccc(-c2cc(NCCc3cc4c(cc3OC)OCCO4)ncn2)cc1 [Ex 337] |
| 21 | 12 | 5 | 14 | CCOc1cc(-c2cc(NCCc3ccc4ccccc4c3C)ncn2)sc1C(=O)O [Example 7, 3-Ethoxy-5-{6-[2-(1-methyl-naphthalen-2-yl)-ethylamino]-pyrimidin-4-yl}-thiophene-2-carboxylic acid] |
| 66 | 90 | 22 | 10 | CCOc1cc(-c2cc(NCCc3ccc4[nH]ccc4c3)ncn2)sc1-c1noc(=O)[nH]1 [Example 339, 3-(3-Ethoxy-5-{6-[2-(1H-indol-5-yl)-ethylamino]-pyrimidin-4-yl}-thiophen-2-yl)-[1,2,4]oxadiazol-5(4H)-one] |
| 12 | 104 | 11 | 3 | CCOc1cc(-c2cc(NCCc3ccc4sccc4c3)ncn2)sc1-c1noc(=O)[nH]1 [Example 340, 3-{5-[6-(2-Benzo[b]thiophen-5-yl-ethylamino)-pyrimidin-4-yl]-3-ethoxy-thiophen-2-yl}-[1,2,4]oxadiazol-5(4H)-one] |
| 12 | 41 | 36 | 14 | CCOc1cc(-c2cc(NCCc3cc4c(cc3C)OCCO4)ncn2)sc1-c1noc(=O)[nH]1 [Example 341, 3-(3-Ethoxy-5-{6-[2-(7-methyl-2,3-dihydro-benzo[1,4]dioxin-6-yl)-ethylamino]-pyrimidin-4-yl}-thiophen-2-yl)-[1,2,4]oxadiazol-5(4H)-one] |
| 7 | 20 | 19 | 3 | CCOc1cc(-c2cc(NCCc3cc4ccsc4cc3OC)ncn2)sc1-c1noc(=O)[nH]1 [Example 342, 3-(3-Ethoxy-5-{6-[2-(6-methoxy-benzo[b]thiophen-5-yl)-ethylamino]-pyrimidin-4-yl}-thiophen-2-yl)-[1,2,4]oxadiazol-5(4H)-one] |
| 9 | 23 | 12 | 2 | CCOc1cc(-c2cc(NCCc3ccc4cc[nH]c4c3)ncn2)sc1-c1noc(=O)[nH]1 [Example 343, 3-(3-Ethoxy-5-{6-[2-(1H-indol-6-yl)-ethylamino]-pyrimidin-4-yl}-thiophen-2-yl)-[1,2,4]oxadiazol-5(4H)-one] |
| 33 | 33 | 14 | 39 | CCOc1cc(-c2cc(NCCc3ccc4c(c3)OCO4)ncn2)sc1-c1noc(=O)[nH]1 [Example 344, 3-{5-[6-(2-Benzo[1,3]dioxol-5-yl-ethylamino)-pyrimidin-4-yl]-3-ethoxy-thiophen-2-yl}-[1,2,4]oxadiazol-5(4H)-one] |

| SMILES | IC50 (PTGER2 (EP2)) [nM] | IC50 (EP2) [nM] | IC50 (EP4) [nM] | IC50 (PTGER4 (EP4)) [nM] |
| --- | --- | --- | --- | --- |
| CCOc1cc2c(cc1CCNc1cc(-c3ccc(C(=O)O)c(OC4CCC4)c3)ncn1)OCCO2 [Ex 196, 2-Cyclobutoxy-4-{6-[2-(7-ethoxy-2,3-dihydro-benzo[1,4]dioxin-6-yl)-ethylamino]-pyrimidin-4-yl}-benzoic acid] | 21 | 37 | 217 | 199 |
| COc1cc2occc2c(C)c1CCNc1cc(-c2ccc(C(=O)O)c(OC3CCC3)c2)ncn1 [Ex 208, 2-Cyclobutoxy-4-{6-[2-(6-methoxy-4-methyl-benzofuran-5-yl)-ethylamino]-pyrimidin-4-yl}-benzoic acid] | 8 | 5 | 248 | 130 |
